Laboratory results from article PMC9430770 (Microbiology Spectrum, 2022).

Assays:
[1] = tested on: C. albicans eno1/eno1 mutant strain; experiment: Galleria mellonella infection model, eno1/eno1 strain; assay type: in vivo, Candida albicans; conditions: G. mellonella, 10 mg/kg
Method: To assess whether Eno1 is a therapeutic target of BE, we constructed a homozygous deletion strain for the ENO1 gene (eno1/eno1). We then investigated the difference in the antifungal efficacy of BE on the infections caused by the parent strain SN152 and the eno1/eno1 strain in the Galleria mellonella infection model. We divided the G. mellonella into 5 groups, with 10 larvae in each group. All 10 larvae died after a 24-h infection with the SN152 strain, while only 3 larvae died after 24 h when infected with the eno1/eno1 strain; the remaining larvae died within 7 days. Compared with the group infected with the parent strain, the survival time of the group infected with the eno1/eno1 strain was longer (P < 0.01) (Fig. 4A). […] The survival rate of larvae in the BE (10 mg/kg of body weight)-treated, SN152 strain-infected group was extended by 30%, compared with that in the group infected with the SN152 strain but without antifungal drug treatment (P < 0.001) (Fig. 4B). […] All 10 larvae in the BE-treated group died within 6 days, and all 10 larvae without BE treatment were killed within 7 days (Fig. 4C). However, FLC (10 mg/kg) can extend the survival rate of larvae infected by the eno1/eno1 strain by 60% (P < 0.01) (Fig. 4D) compared with the group infected with the eno1/eno1 strain without antifungal drug treatment.
FIG 4 Eno1 acts as a therapeutic target of BE. […] Each curve represents a group of 10 larvae (n =10) monitored daily for survival for up to 10 days after infection. […]
Virulence testing of C. albicans was done in Galleria mellonella as described previously ([56]). […] After growth in YPD media overnight at 30°C and 200 rpm, C. albicans SN152 cells or eno1/eno1 mutant cells were washed with PBS 3 times and diluted to the desired concentration (1 × 10^7 cells/mL) determined by counting with a hemacytometer. […] The death of G. mellonella was assessed daily and analyzed statistically by the Kaplan-Meier method (log-rank test).

Candida albicans 103 = experiment: Checkerboard microdilution assay with fluconazole; assay type: cell-based
Description: Ta b l e S3. Interaction of fluconazole ( FLC) and BE probes against isolates of Candida albicans
Compounds Molecular structure Individual action Interaction MIC(μg/ mL ) FICI Mode of
MIC (μg /mL) FLC Compounds interaction

CaEno1 = target: T1, CaEno1 (Candida albicans, UniProt P30575); conditions: read-out: IC50 inhibiting enolase activity; CaEno1 30 nM, 2-PG 1 mM
T1 sequence (P30575 1-440): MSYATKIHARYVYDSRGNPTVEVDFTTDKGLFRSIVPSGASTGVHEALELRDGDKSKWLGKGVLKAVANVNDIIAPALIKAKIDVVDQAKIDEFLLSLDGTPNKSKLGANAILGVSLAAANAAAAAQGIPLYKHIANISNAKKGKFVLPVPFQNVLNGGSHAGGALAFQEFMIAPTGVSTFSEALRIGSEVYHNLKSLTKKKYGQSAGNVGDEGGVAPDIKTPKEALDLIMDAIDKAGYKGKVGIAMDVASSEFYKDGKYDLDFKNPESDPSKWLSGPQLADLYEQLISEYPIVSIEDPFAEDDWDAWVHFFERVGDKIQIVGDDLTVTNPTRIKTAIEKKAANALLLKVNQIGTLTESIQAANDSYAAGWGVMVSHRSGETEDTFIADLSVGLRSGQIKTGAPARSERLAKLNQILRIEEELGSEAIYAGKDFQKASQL
Method: Data are shown as the means ± standard deviations. […] Data are shown as the means ± standard deviations.
Enolase activity was determined by direct spectrophotometric assay via measuring the increase of absorbance at 240 nm of phosphoenolpyruvate (PEP) as described previously with some modifications ([54]). Briefly, the reaction buffer (pH 7.0) containing 10 mM imidazole, 200 mM KCl, and 0.5 mM MgAc in a final reaction volume of 100 μL was mixed with Eno1 (a final concentration of 30 nM), followed by the mixture of 2-phosphoglycerate (2-PG) (Yuanye Biotech Shanghai) with a final concentration of 1 mM. The enolase activity of Eno1 was evaluated by measuring the increase of absorbance (OD240) at room temperature for 10 min. […] The well-known enolase inhibitor sodium fluoride (NaF; Sangon Biotech) was initiated from 5 mM and used as a control ([29]). Inhibition curves were fitted by nonlinear regression (four parameters) using the GraphPad Prism software.

[2] = target: the molecule itself; experiment: crystal structure; X-ray crystals of CaEno1 alone and of CaEno1 with 2-PG, sitting drop at 13°C, space group C2; four Eno1 chains (two dimers) in the asymmetric unit

For `OC(Cn1cncn1)(Cn1cncn1)c1ccc(F)cc1F` [FLC, fluconazole], the “survival rate of larvae extended versus infected group without drug treatment” value [1] was 60%.

With `C#CCOc1cc(C2(C(F)(F)F)N=N2)ccc1COc1cc2oc(-c3ccccc3)cc(=O)c2c(O)c1N` [BE-1] the “Interaction MIC FLC” value (Candida albicans 103; MIC of FLC in combination with the compound) was greater than 64 µg/mL, the “Interaction MIC Compounds” value (Candida albicans 103; MIC of the compound in combination with FLC) was 1 µg/mL and the FICI (Candida albicans 103; combination with FLC) was 1.01. The Mode of interaction (Candida albicans 103; combination with FLC, FLC-resistant C. albicans) was “Indifference” and the “Individual action MIC” value (Candida albicans 103; compound alone) was greater than 64 µg/mL.

For `[F-].[Na+]` [NaF, sodium fluoride], the IC50 (CaEno1) was 504 ± 7.1 µM.

B1: C. albicans Eno1 (enzyme, UniProt P30575 1-440, looked up)
chain: T1 sequence (P30575 1-440)
notes: also called CaEno1; enolase; source: E. coli BL21(DE3), purified (Ni-NTA, Superdex 200 SEC)
With B1 the “stoichiometry N” value [2] was 2.
